Ends that are not written are not given here.
How the values were obtained:
Type in all cases: in vivo
[1] = system: rat with pulmonary fibrosis induced by bleomycin; assay: Lung coefficient, intratracheal instillation (Example 17); conditions: lung mass (mg)/body weight (g), 8 mg/kg peptide + 4 mg/kg bleomycin, Mean ± SEM
Experimental: The rats in Example 2 were weighed and sacrificed by anesthesia overdose. Lung tissue of both sides of the rats was taken, and the connective tissue around the lung tissue was carefully removed. After washing with saline and dried with a filter paper, the wet weight of the whole lung was weighted by an electronic balance. After the wet weight of the whole lung was weighted by the electronic balance, the lung coefficient was calculated according to the formula, lung coefficient=lung mass (mg)/body weight (g) (the result is shown in FIG. 1).
The rats in model group were intratracheally instilled with bleomycin (4 mg/kg); after anesthesia, the rats in treatment groups were intratracheally instilled with bleomycin (4 mg/kg) and corresponding therapeutic drug (8 mg/kg) simultaneously. The remaining implementation steps were the same as the description of Example 9.
The experimental rats of the control group, the model group and the treatment groups of Example 15 were taken to determine the lung coefficient. The implementation steps were the same as the description of Example 2.

[2] = system: rat with pulmonary fibrosis induced by bleomycin; assay: HE staining score, intratracheal instillation (Example 18); conditions: inflammatory pathology score, grade 0 to 3, 8 mg/kg peptide + 4 mg/kg bleomycin, Mean ± SEM
Text: The lung tissue of the rats of Example 2 was taken, fixed with 4% paraformaldehyde and embedded in paraffin. The wax block embedded the lung tissue was sectioned along the largest cross section. Pathological changes in lung tissue were observed using hematoxylin-eosin (HE) staining. Pathological changes in lung tissue were observed under a light microscope (low magnification) at a magnification of 100 times (the result is shown in FIG. 2).
According to the method provided by Szapie, et al., the degree of alveolitis was graded according to the range of lesions and could be divided into 0 to 3 grades, corresponding to 0 to 3 points. The evaluation indexes for the degree of alveolitis are as follows: grade 0, no alveolitis; grade 1, mild alveolitis, manifested as a slight increase in alveolar septum, infiltration of monocytes, near the pleura or localized, with a lesion range of less than 20% without alveolar structural damage; grade 2, moderate alveolitis, the lesion ranges from 20% to 50%, relatively severe near the pleura; grade 3, severe alveolitis, diffusely distributed, the lesion range is more than 50%, with pulmonary parenchymal lesion occasionally. […]

[3] = system: rat with pulmonary fibrosis induced by bleomycin; assay: Hydroxyproline content in rat lung tissue, acid hydrolysis, intravenous injection (Example 25); conditions: intravenous injection 10 mg/kg once a day, 4th to 13th day after bleomycin 4 mg/kg; Mean ± SEM
Experimental: (§1) The rats were weighed before administration, intramuscularly injected with 65 mg/kg Zoletil anesthetic solution. After the rats entered the stage III anesthesia, the experimental rats were fixated in the lateral decubitus. Gavage needle size 12 was inserted into rat trachea through oral cavity along the glottis to instill sterile saline or bleomycin (4 mg/kg) (Day 0). After the anesthesia, the rats in control group were intratracheally instilled with an equal volume of sterile saline, and the rats in model group and treatment groups were intratracheally instilled with bleomycin (4 mg/kg). On the 4th day, the sterile saline or peptide drug was injected through the tail vein once a day until the 13th day. The rats were sacrificed on the 14th day for subsequent experiments. The rats in the control group were received no drug treatment; the rats in the model group were injected with sterile saline through the tail vein; the rats in the treatment groups were injected with corresponding peptide drug (10 mg/kg) through the tail vein. […]
The lung tissue in the model group, the control group and the treatment groups of Example 20 was taken, and the hydroxyproline content in lung tissue was detected using BioVision Hydroxyproline Acid Hydrolysis Assay Kit (Cat. No. K555-100), the result is shown in the HYP values in Table 4.

tgf-β = assay: mRNA content of tgf-β in rat lung tissue by qPCR (Example 26); conditions: 18S RNA internal reference; intravenous injection 10 mg/kg once a day, 4th to 13th day after bleomycin 4 mg/kg; Mean ± SEM
Experimental: as §1, with “experiments.” for “experiments. The rats in the control group were received no drug treatment; the rats in the model group were injected with sterile saline through the tail vein; the rats in the treatment groups were injected with corresponding peptide drug (10 mg/kg) through the tail vein.”
The rat lung tissue in the control group, the model group and the treatment groups of Example 20 was taken. […] After obtaining cDNA using reverse transcription, fluorescence quantitative PCR (qPCR) kit (Applied Biosystems, Cat. No. 4319413E) was used to detect the mRNA content of tgf-β (forward primer: GAGGTGACCTGGGCACCAT, reverse primer: GGCCATGAGGAGCAGGAA), 18S RNA was used as an internal reference, and the result is shown in the tgf-β values in Table 4.

active TGF-β = assay: Active TGF-β content in rat lung tissue by ELISA (Example 27); conditions: active TGF-β/total TGF-β; intravenous injection 10 mg/kg once a day, 4th to 13th day after bleomycin 4 mg/kg; Mean ± SEM
Experimental: The rat lung tissue in the model group, the control group and the N4 treatment group of Example 9 was taken, and homogenized using RIPA lysate (100 mg of lung tissue corresponding to 1 mL of lysate), centrifuged and the supernatant was taken, and then the protein concentration was determined by BCA method. Equal amounts of protein samples were taken and the active TGF-β content was measured by enzyme-linked immunosorbent assay ELISA (Promega, Cat. No. G7591) (the result is shown in FIG. 10), and one-way ANOVA was used for biostatistical analysis.
The rats were weighed before administration, intramuscularly injected with 65 mg/kg Zoletil anesthetic solution. After the rats entered the stage III anesthesia, the experimental rats were fixated in the lateral decubitus. Gavage needle size 12 was inserted into rat trachea through oral cavity along the glottis to instill sterile saline or bleomycin (4 mg/kg) (Day 0). After the anesthesia, the rats in control group were intratracheally instilled with an equal volume of sterile saline, and the rats in model group and treatment groups were intratracheally instilled with bleomycin (4 mg/kg). […]
The rat lung tissue in the model group, the control group and the treatment groups of Example 20 was taken, and the active TGF-β content was measured by ELISA. […]

YRVRFLAKENVTQDAEDN [N1]
Lung Coefficient [1]: 8.49 ± 0.09
HE Score [2]: 2.45 ± 0.09
HYP (hydroxyproline content in lung tissue) [3]: 34.09 ± 5.01
tgf-β (mRNA content of tgf-β in lung tissue) (tgf-β): 2.50 ± 0.04
TGF-β (active TGF-β content in lung tissue) (active TGF-β): 13.15 ± 0.48
